In patent publication US12472204B2, “Compound of element acid, which is in allotropic form, which enters into cellular interaction in some bone diseases” (CELAL BAYAR UNIVERSITESI DIGER MERKEZLER MUDURLUGU, priority 2020, dated 2025):

Assays:
[1] = system: osteoblast cells where ageing model is formed by hydroxy-urea
Method: (§1) The 2nd group has been determined as the boric acid group by adding 0.1 mM boric acid into the osteoblast culture medium. The 3rd group is the ageing group and has been cultured with 1 mM hydroxy-urea to the osteoblast culture medium and has been determined as the experimental brittle bone disease group. The 4th group has been determined as the group where boric acid is applied to the osteogenesis imperfecta model by applying […] boric acid to the cells where ageing model has been formed. Boric acid has been applied to 2nd and 4th groups for 72 hours and group 1 and group 3 have been cultured in their own culture media at the same durations.

[2] = system: osteoblast cells where hydroxy-urea is applied (in-vitro brittle bone disease model)
Method: as §1

[3] = after applying boric acid, hydroxy-urea ageing model
[4] = 4th group: osteoblast + 1 mM hydroxy-urea + boric acid, 72 hours

SMILES: OB(O)O [boric acid, Boric acid]
- cellular morphology [1, 3]: improved
- immuno-reactivity of osteocalcin released by osteoblasts [1, 3]: increases
- immuno-reactivity of osteonectin released by osteoblasts [1, 3]: increases
- proliferation in cells where ageing model is formed by hydroxy-urea ([1]; concluded from Ki-67 immuno-reactivity): triggers proliferation
- immuno-reactivity of Ki-67 (proliferation marker) ([1]; osteoblasts where boric acid is applied): greater
- cytoplasmic vacuoles [2, 4]: begin to occur
- epithelioid structure of osteoblast cells [2, 4]: preserve their epithelioid structures
- intercellular vacuoles [2, 4]: decrease
- augmentation of osteoblasts and protection of these cells from ageing ([2]; boric acid applied to the in-vitro model): favorable effects
